The values below are quoted from earlier work in patent US20040023897A1, “Methods for preventing or treating disease mediated by toxin-secreting bacteria” (priority 2001, published 2004).

The test system of data set [1] is V-ATPases.
Data set [2] concerns V-ATPases. This is another data set of the same source.

On to `C/C=C/[C@H]1O[C@@](O)([C@@H](C)[C@H](O)[C@H](C)[C@H]2OC(=O)/C(OC)=C/C(C)=C/[C@@H](C)[C@@H](O)[C@@H](CC)[C@@H](O)[C@H](C)C/C(C)=C/C=C/[C@@H]2OC)C[C@@H](O[C@H]2C[C@@H](O)[C@H](OC(N)=O)[C@@H](C)O2)[C@@H]1C` [concanamycin A], for which the “concentration at which reversible inhibition of proton translocation occurs” value with V-ATPases [1] is recorded as “sub-micromolar concentrations”. Regarding `CCN1C(=O)C=CC1=O` [N-ethylmaleimide], in the data set on V-ATPases [2], the “concentration at which inhibition of ATP hydrolysis occurs” value is “low micromolar concentrations”.

Take `CO/C1=C\C(C)=C\[C@@H](C)[C@@H](O)[C@@H](C)C/C(C)=C/C=C/[C@H](OC)[C@@H]([C@@H](C)[C@@H](O)[C@H](C)[C@@]2(O)C[C@@H](O)[C@H](C)[C@@H](C(C)C)O2)OC1=O` [Bafilomycin A1]: the “concentration at which reversible inhibition of proton translocation occurs” value with V-ATPases [1] was “sub-micromolar concentrations”.

With `C(=NC1CCCCC1)=NC1CCCCC1` [DCCD, N,N′-dicyclohexylcarbodiimide], the “inhibition of proton pumping” value with V-ATPases [1] (micromolar concentrations of DCCD) was “complete and irreversible inhibition”.
